From patent publication US20110097409A1, “PARTICLES COMPRISING A SALT OF 8-HYDROXY-2-[[(1R)-2-(4-METHOXYPHENYL)-1-METHYLETHYL]AMINO]ETHYL]-2(1H)-QUINOLINONE HAVING IMPROVED ADHESION PROPERTIES FOR POWDER FORMULATIONS FOR INHALATION” (Chiesi Farmaceutici S.p.A., priority 2008, published 2011)
Where a name gives a salt, the structure may show the parent alone.

Key:
[1] = Force and work of adhesion by atomic force microscopy (colloid probe); assay type: physicochemical; details: against smooth lactose carrier
Source text: The force of adhesion of the batches of powder particles obtained in Example 1 has been determined according to the procedure reported hereafter in comparison to those to those of micronised carmoterol hydrochloride and budesonide raw materials (r.m.) obtained by a conventional milling process.
As a substrate, alpha-lactose particles with a smooth surface having the characteristics reported in EP 1 196 146 and obtained as therein described are used.
An Atomic Force Microscope (AFM) as a scanning probe microscope is used to image lactose surface on an nm or even sub-nm level and to measure surface forces between the powder particles of the invention and particles of smoothed lactose.
A way to get information on the surface forces which are acting in a system and to illustrate the functioning of an AFM, is to use the “Force-Mode”. This is done by moving the tip towards and away from the surface. Recording photodetector signal as a function of z-piezo elongation yields a curve which can be interpreted as a force-vs.-distance-curve. In this work, this technique has been employed to measure the drug-carrier adhesion force modifying the original cantilever.
The interaction of the micron-sized carmoterol particles with lactose carrier surfaces is conducted using the Explorer AFM (Thermomicroscopes, UK). A multistage micromanipulation method for the attachment of micrometer-sized drug particles to tipless cantilevers was adapted from the method described by Preuss and Butt (Preuss M, Butt H-J. 1998, Langmuir, 14:3164-3174). Essentially, colloid probes are prepared by mounting an individual drug particle (approximate diameter 3-5 μm) onto a V-shaped tiples silicon nitride cantilever (spring constant k=0.58 N/m, Veeco Instruments Ltd., Cambridge, UK) using a quick-setting epoxy resin together with the custom-built microscope.
Force separation measurements are collected using layered imaging mode to produce multiple force distance curves (n=250) between each drug probe at three surface sites over a 10 μm×10 μm area. As the variability in probe contact radius geometry was unknown each study is performed at least in triplicate (n=3 to 4 probes for each measurement).
The displacement curves for each of the 250 contact points in the 10 μm×10 μm sector are plotted using a custom built MatLab program (The Mathworks Inc. USA).
The force of adhesion (the apex of the adhesion peak) and the work of adhesion (integrated area of the adhesion peak) is calculated for each graph. […] Outliers are defined as data points outside the 5-95% limits of the normal distributions obtained, and these are removed automatically by the batch conversion software. […]

[2] = Shape factor SF and particle shape from SEM images; assay type: physicochemical
Protocol: Accordingly, the powder particles of the invention are characterized by a “shape factor” SF comprised between 0.8 and 1.0, preferably from 0.85 and 0.95 as determined according to the following equation reported in Kumar S et al., Curr. Appl. Phys. Influence of metal powder shape on drag coefficient in a spray jet, 2008, in press doi:10.1016/j.cap.2008.06.005.
RN indicates the roundness of the particle and is calculated by applying the following formula: […]
wherein p and A are the mean perimeter and area values, respectively, of ten spherical particles as measured from Scanning electron microscopy (SEM) images.
The shape factor of the obtained particles, calculated according to the equation reported in the Detailed Description of the Preferred Embodiments, turned out to be comprised between 0.87 and 0.95.

Compound: COc1ccc(C[C@@H](C)NC[C@H](O)c2ccc(O)c3[nH]c(=O)ccc23)cc1 [Carmoterol HCl r.m., 8-hydroxy-5-[(1R)-1-hydroxy-2-[[(1R)-2-(4-methoxyphenyl)-1-methylethyl]amino]ethyl]-2(1H)-quinolinone]
- Force of adhesion Fmax ([1]; particle population (20%)): 11.03 ± 1.27 (20%) nN
- Work of adhesion Wad ([1]; particle population (20%)): 413.15 ± 131.85 µJ
- Force of adhesion Fmax ([1]; particle population (80%)): 42.68 ± 4.63 (80%) nN
- Work of adhesion Wad ([1]; particle population (80%)): 2115.69 ± 344.31 µJ
- shape factor SF ([2]; SF=1/RN, RN=p^2/4πA, from SEM images): 0.51
- particle shape by SEM inspection ([2]; scanning electron microscope, FIG. 1): different irregular flakes and/or sheets
